Results published in patent US9567301B2, “Pyrrol-1-yl benzoic acid derivatives useful as myc inhibitors” (Whitehead Institute for Biomedical Research, priority 2012, dated 2017).
Like-named read-outs stand apart in the source and are kept apart here.

Assays:
Jurkat cells = experiment: Cell viability assay (ATPlite), Jurkat; type: cell-based, human; settings: class symbols, NA: not active under assay conditions
Procedure: (§1) This assay was used for the H2171 and MM1S cell data shown in Table 2, and for the Jurkat (an immortalized line of human T lymphocyte cells), Ly1 (OCI-Ly1 human non-Hodgkin lymphoma cell line), Ly4 (OCI-Ly4 human non-Hodgkin lymphoma cell line), H2172 (NCI-H2172 human non-small cell lung cancer cell line), and CA-46 (a human Burkitt's lymphoma cell line) cell data shown in Table 3 and FIG. 12. Cells were counted and adjusted to 60,000 cells/mL. Using a Biotek EL406, 50 μL of cells are media were distributed into 384 well white plates from Thermo. Immediately after plating, compound in DMSO was distributed to plates. For large plate sets, cells were returned to 37° C. incubator while not in use.
(§2) Compounds were added to plates using a 100 nL 384 well pin transfer manifold on a Janus workstation. Stocks were arrayed in 10 point quadruplicate dose response in DMSO stock in 384 well Greiner compound plates. After addition of compound, plates were incubated for three days in a 37° C. incubator.
(§3) Cell viability was read out using ATPlite from Perkin Elmer. Plates were removed from the incubator and brought to room temperature prior to use. Lyophilized powder was resuspended in lysis buffer and diluted 1:2 with DI water. 25 μL of this solution was added to each well using the Biotek liquid handler. Plates were sealed with adherent aluminum seals prior to vortexing and spinning down at 1000 g for 1 minute. Plates were incubated for 15 minutes at room temperature before signal was read on an Envision Plate Reader.

c-Myc/Max/Ebox DNA = c-Myc/Max/Ebox DNA (Homo sapiens, UniProt P01106); experiment: c-Myc/Max/Ebox DNA AlphaScreen assay; type: binding; parameters: An exemplary assay uses full-length human c-Myc and Max proteins; his6 (cleaved yes); made in house
Sequence of c-Myc/Max/Ebox DNA (P01106 16-454): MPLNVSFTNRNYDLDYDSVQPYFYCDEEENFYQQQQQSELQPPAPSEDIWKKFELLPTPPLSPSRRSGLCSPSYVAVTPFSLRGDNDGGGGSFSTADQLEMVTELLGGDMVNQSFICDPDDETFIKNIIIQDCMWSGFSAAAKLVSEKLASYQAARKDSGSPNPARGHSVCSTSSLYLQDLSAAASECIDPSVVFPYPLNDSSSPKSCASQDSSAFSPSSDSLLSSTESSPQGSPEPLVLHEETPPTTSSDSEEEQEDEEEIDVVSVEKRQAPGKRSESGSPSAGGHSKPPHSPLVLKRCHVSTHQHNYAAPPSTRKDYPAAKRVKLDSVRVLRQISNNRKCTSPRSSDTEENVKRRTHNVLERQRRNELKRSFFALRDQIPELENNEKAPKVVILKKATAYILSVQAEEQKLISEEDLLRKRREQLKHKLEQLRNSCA
Outline: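 Proximity read-out of Myc–Max–DNA complex formation in 50 mM HEPES pH 8.0 with 500 μM DTT. Compounds contact tag-free c-Myc (25 nM), Ebox oligo (10 nM) and acceptor beads first. His6-Max (1.25 nM) with donor beads follows, then 2 h incubation in low light with DMSO ≤2% v/v.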

H2171 cells = experiment: Cell viability assay (ATPlite), H2171; type: cell-based, human; settings: cell viability, three days, ATPlite, NA: inactive under assay conditions
Outline: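 Cells seeded at 60,000 cells/mL and dosed immediately by pin transfer in 10-point quadruplicate dose response from DMSO stocks. After three days at 37 °C, viability was read by ATPlite luminescence after 15 min at room temperature.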

MM1S cells = experiment: Cell viability assay (ATPlite), MM1S; type: cell-based, human; settings: cell viability, three days, ATPlite, NA: inactive under assay conditions
Procedure: as §1, §2, §3

[1] = class symbols, NA: not active under assay conditions, read-out: Myc/Max IC50

Row | SMILES | EC50 (Jurkat cells; Homo sapiens, Jurkat) | IC50 (c-Myc/Max/Ebox DNA; [1]) | also measured
1 | Cc1ccc(C)n1-c1ccccc1C(=O)O [Compound 1] | ≥ 100 µM | 10 to 100 µM | EC50 (H2171 cells): 93.5 µM; EC50 (MM1S cells): 132 µM
2 | Cc1ccc(C)n1-c1ccccc1-c1nnn[nH]1 [Compound 162] | ≥ 100 µM | ≥ 100 µM | IC50 (c-Myc/Max/Ebox DNA; c-Myc/Max/Ebox DNA AlphaScreen, NA: inactive under assay conditions, read-out: Biochemical IC50): 151 µM; EC50 (H2171 cells; Homo sapiens, NCI-H2171, 72 h): 24.2 µM; EC50 (MM1S cells; Homo sapiens, MM1.S, 72 h): 66 µM
3 | Cc1ncc(CO)c(/C=N/NC(=O)c2ccc(C(=O)O)c(-n3c(C)ccc3C)c2)c1O [Compound 80] | ≥ 100 µM | 1 to 10 µM | EC50 (H2171 cells; Homo sapiens, NCI-H2171, 72 h): 400 µM
4 | Cc1ccc(C)n1-c1ccccc1C(=O)NS(=O)(=O)C1CC1 [Compound 190] | 10 to 100 µM | ≥ 100 µM | –
5 | Cc1ccc(C)n1-c1cc(C(=O)N2CCN(C(=O)c3cncc(F)c3)CC2)ccc1C(=O)O [Compound 226] | ≥ 100 µM | 10 to 100 µM | –
6 | Cc1ccc(C)n1-c1cc(C(=O)N2CCCC(c3ccc(C(=O)O)cc3)C2)ccc1C(=O)O (centres unmarked) [Compound 210] | – | 10 to 100 µM | EC50 (Jurkat cells): ≥ 100 µM
7 | COc1ccccc1C(=O)N1CCN(C(=O)c2ccc(C(=O)O)c(-n3c(C)ccc3C)c2)CC1 [Compound 213] | ≥ 100 µM | ≥ 100 µM | –
8 | COc1cccc(C2CCCN(C(=O)c3ccc(C(=O)O)c(-n4c(C)ccc4C)c3)C2)c1 (centres unmarked) [Compound 189] | 10 to 100 µM | 1 to 10 µM | –
9 | Cc1ccc(C)n1-c1cc(C(=O)N2CCCC(c3ccc(C(=O)NS(C)(=O)=O)cc3)C2)ccc1C(=O)NS(C)(=O)=O (centres unmarked) [Compound 186] | ≥ 100 µM | ≥ 100 µM | –
10 | Cc1ccc(C)n1-c1cc(-c2nnc(-c3cccc(C(=O)O)c3)o2)ccc1C(=O)O [Compound 167] | 10 to 100 µM | 10 to 100 µM | –
11 | Cc1ccc(C)n1-c1cc(-c2nnc(-c3ccc(OCc4ccccc4)c(OCc4ccccc4)c3OCc3ccccc3)o2)ccc1C(=O)O [Compound 219] | < 10 µM | 1 to 10 µM | –
12 | O=C(O)c1ccccc1-n1c(Br)ccc1C(F)(F)F [Compound 197] | ≥ 100 µM | 10 to 100 µM | –
13 | COc1ccc(C2CCCN(C(=O)c3ccc(C(=O)O)c(-n4c(C)ccc4C)c3)C2)cc1 (centres unmarked) [Compound 185] | ≥ 100 µM | 10 to 100 µM | –
14 | Cc1ccc(C)n1-c1cc(-c2nnc(-c3cccc(C(=O)NS(C)(=O)=O)c3)o2)ccc1C(=O)O [Compound 222] | 10 to 100 µM | 10 to 100 µM | –
15 | COC(=O)c1ccc(C(=O)NNC(=O)OC(C)(C)C)cc1-n1c(C)ccc1C [Compound 184] | ≥ 100 µM | ≥ 100 µM | –
16 | Cc1ccc(C)n1-c1ccccc1C(=O)NS(=O)(=O)c1ccccc1 [Compound 191] | 10 to 100 µM | ≥ 100 µM | –
17 | Cc1ccc(C)n1-c1cc(CNCc2ccc(C(=O)O)cc2)ccc1C(=O)O [Compound 193] | ≥ 100 µM | < 1 µM | –
18 | Cc1ccc(C)n1-c1cc(C(=O)N2CCCC(c3ccccc3O)C2)ccc1C(=O)O (centres unmarked) [Compound 207] | ≥ 100 µM | 10 to 100 µM | –
19 | Cc1ccc(C)n1-c1cc(C(=O)N2CCCC(c3ccc(C(=O)NS(C)(=O)=O)cc3)C2)ccc1C(=O)O (centres unmarked) [Compound 205] | ≥ 100 µM | 1 to 10 µM | –

Row | SMILES | EC50 (Jurkat cells; Homo sapiens, Jurkat) | IC50 (c-Myc/Max/Ebox DNA; [1]) | also measured
20 | Cc1ccc(C)n1-c1cc(C(=O)N2CCN(c3cccnc3)CC2)ccc1C(=O)O [Compound 194] | 10 to 100 µM | ≥ 100 µM | –
21 | Cc1ccc(C(F)(F)F)n1-c1ccccc1C(=O)O [Compound 192] | 10 to 100 µM | ≥ 100 µM | –
22 | Cc1ccc(C)n1-c1cc(C(=O)N2CCN(c3cccc(C(=O)O)c3)CC2)ccc1C(=O)O [Compound 195] | ≥ 100 µM | < 1 µM | –
23 | Cc1ccc(C)n1-c1ncccc1C(=O)O [Compound 134] | ≥ 100 µM | 1 to 10 µM | –
24 | COc1cccc(C(=O)N2CCN(C(=O)c3ccc(C(=O)O)c(-n4c(C)ccc4C)c3)CC2)c1 [Compound 220] | ≥ 100 µM | 10 to 100 µM | –
25 | Cc1ccc(C)n1-c1cc(C(=O)N2CCCC(c3ccccc3C(=O)O)C2)ccc1C(=O)O (centres unmarked) [Compound 203] | ≥ 100 µM | < 1 µM | –
26 | Cc1ccc(C)n1-c1ncccc1C(=O)NS(C)(=O)=O [Compound 187] | ≥ 100 µM | ≥ 100 µM | –
27 | COc1cccc([C@H]2CN(C(=O)c3ccc(C(=O)O)c(-n4c(C)ccc4C)c3)C[C@@H]2O)c1 [Compound 225] | 10 to 100 µM | ≥ 100 µM | –
28 | Cc1ccc(C)n1-c1cc(C(=O)N2CCC=C(c3cccc(C(=O)O)c3)C2)ccc1C(=O)O [Compound 204] | 10 to 100 µM | 10 to 100 µM | –
29 | Cc1ccc(C)n1-c1cc(C(=O)N2CCCC(c3ccccc3)C2)ccc1C(=O)O (centres unmarked) [Compound 188] | ≥ 100 µM | 10 to 100 µM | –
30 | Cc1ccc(C)n1-c1cc(C(=O)N2CCCC(c3ccc(C(=O)O)cc3)C2)ccc1C(=O)NS(C)(=O)=O (centres unmarked) [Compound 221] | ≥ 100 µM | 10 to 100 µM | –
31 | Cc1ccc(C)n1-c1cc(C(=O)N2CCC=C(c3ccc(C(=O)O)cc3)C2)ccc1C(=O)O [Compound 202] | 10 to 100 µM | 10 to 100 µM | –
32 | Cc1ccc(C)n1-c1cc(C(=O)N2CCCC(c3ccc(C(=O)O)cc3)C2)ccc1C(=O)O (centres unmarked) [Compound 209] | – | 10 to 100 µM | EC50 (Jurkat cells): ≥ 100 µM
33 | Cc1ccc(C)n1-c1cc(-c2nnc(-c3ccc(O)c(O)c3O)o2)ccc1C(=O)O [Compound 224] | < 10 µM | < 1 µM | –
34 | Cc1ccc(C)n1-c1cc(C(=O)N2CCN(c3ccccc3C(=O)O)CC2)ccc1C(=O)O [Compound 198] | ≥ 100 µM | 1 to 10 µM | –
35 | Cc1ccc(C)n1-c1cccnc1C(=O)O [Compound 181] | ≥ 100 µM | 1 to 10 µM | –
36 | Cc1ccc(C)n1-c1cc(-c2nnc(-c3ccc(C(=O)O)cc3)o2)ccc1C(=O)O [Compound 206] | 10 to 100 µM | 10 to 100 µM | –
37 | Cc1ccc(C)n1-c1ccccc1C(=O)NS(C)(=O)=O [Compound 180] | ≥ 100 µM | 10 to 100 µM | –
